# Measured values published in publication PMC7260179, “Structural insight into the electron transfer pathway of a self-sufficient P450 monooxygenase” (Nature Communications, 2020).
# Experiments:
# [1] = biological target: T1, CYP116B46 (Tepidiphilus thermophilus, UniProt A0A0K6ITW2); assay: X-ray crystal structure; format: binding; conditions: crystals at pH 7.0
# T1 construct: gene Ga0061068_103196; full-length, synthetic gene in pET46 Ek/LIC (Ni-NTA purified), expressed in E. coli BL21(DE3); residues 27-779 modelled in crystal
# [2] = biological target: T1, CYP116B46; assay: hydroxylation assay, GC-FID of silylated products; format: biochemical; conditions: 0.4 mM substrate, 10 uM enzyme, 1 mM NADP+ with glucose dehydrogenase/glucose recycling, pH 8.0, 30 C, 5 h
# T1 sequence (A0A0K6ITW2 entry or part of it): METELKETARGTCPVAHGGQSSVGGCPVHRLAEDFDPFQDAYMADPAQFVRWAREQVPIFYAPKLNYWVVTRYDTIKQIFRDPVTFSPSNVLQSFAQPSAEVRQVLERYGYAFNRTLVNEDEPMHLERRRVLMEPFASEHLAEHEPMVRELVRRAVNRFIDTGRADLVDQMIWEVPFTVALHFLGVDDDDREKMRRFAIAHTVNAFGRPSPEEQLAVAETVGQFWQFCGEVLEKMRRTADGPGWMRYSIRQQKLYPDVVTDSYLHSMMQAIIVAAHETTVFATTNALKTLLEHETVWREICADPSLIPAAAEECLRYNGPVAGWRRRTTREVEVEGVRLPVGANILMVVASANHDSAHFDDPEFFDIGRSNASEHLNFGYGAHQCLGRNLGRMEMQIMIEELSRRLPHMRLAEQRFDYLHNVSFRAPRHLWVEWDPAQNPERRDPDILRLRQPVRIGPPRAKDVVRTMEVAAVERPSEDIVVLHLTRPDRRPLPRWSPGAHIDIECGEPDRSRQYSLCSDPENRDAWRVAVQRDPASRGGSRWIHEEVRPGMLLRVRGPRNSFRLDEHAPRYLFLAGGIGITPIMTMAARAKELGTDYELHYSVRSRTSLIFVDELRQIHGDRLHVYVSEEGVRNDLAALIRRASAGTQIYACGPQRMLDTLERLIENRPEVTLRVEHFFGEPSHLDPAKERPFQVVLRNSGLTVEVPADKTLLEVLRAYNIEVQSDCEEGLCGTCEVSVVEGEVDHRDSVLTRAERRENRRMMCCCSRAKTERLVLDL
compound,measurement,setting,value
[S]1[Fe][S][Fe]1 [[2Fe-2S] cluster],"X-ray crystal structure, 2.13 A",[1]; ferredoxin domain,"binding sites for each of the prosthetic groups, heme, FMN and binuclear Fe-S cluster"
Cc1cc2nc3c(=O)[nH]c(=O)nc-3n(C[C@H](O)[C@H](O)[C@H](O)COP(=O)(O)O)c2cc1C [FMN],"X-ray crystal structure, 2.13 A","[1]; reductase domain, co-purified with the recombinant protein",The FMN bound in the reductase domain was co-purified with the recombinant protein
CCCCCCCCCC(=O)O [decanoic acid],"hydroxylation assay, GC-FID of silylated products",[2],The enzyme activity of CYP116B46 was estimated by decanoic acid hydroxylation assay
